Experimental data taken from ChEMBL document CHEMBL3627596, “Discovery of Novel Inhibitor Scaffolds against the Metallo-β-lactamase VIM-2 by Surface Plasmon Resonance (SPR) Based Fragment Screening” (J Med Chem, 2015).

Assays:
Beta-lactamase VIM-2 [1] = biological target: T1, Beta-lactamase VIM-2 (Pseudomonas aeruginosa, UniProt Q9K2N0); test: Inhibition of Pseudomonas aeruginosa 301-5473 metallo-beta-lactamase VIM-2 expressed in Escherichia coli BL21(DE3) using nitrocefin as substrate preincubated for 5 mins followed by substrate addition measured every 17 secs for 20 mins by microplate reader analysis
[2] = biological target: Beta-lactamase VIM-2 (Pseudomonas aeruginosa) (UniProt Q9K2N0); test: Inhibition of Pseudomonas aeruginosa 301-5473 metallo-beta-lactamase VIM-2 expressed in Escherichia coli BL21(DE3) using nitrocefin as substrate at 500 uM preincubated for 5 mins followed by substrate addition measured every 17 secs for 20 mins by microplate reader analysis relative to control
Beta-lactamase VIM-2 [3] = biological target: T1, Beta-lactamase VIM-2; test: Binding affinity to Pseudomonas aeruginosa 301-5473 metallo-beta-lactamase VIM-2 expressed in Escherichia coli BL21(DE3) measured for 15 secs by SPR analysis
Beta-lactamase VIM-2 [4] = biological target: T1, Beta-lactamase VIM-2; test: Reversible binding affinity to Pseudomonas aeruginosa 301-5473 metallo-beta-lactamase VIM-2 expressed in Escherichia coli BL21(DE3) measured for 15 secs by SPR analysis
[5] = biological target: Beta-lactamase VIM-2 (Pseudomonas aeruginosa) (UniProt Q9K2N0); settings: 301-5473
Description: Reversible binding affinity to Pseudomonas aeruginosa 301-5473 metallo-beta-lactamase VIM-2 expressed in Escherichia coli BL21(DE3) assessed as association constant measured for 30 secs by SPR analysis

Beta-lactamase VIM-2 [6] = biological target: T1, Beta-lactamase VIM-2; test: Dissociation rate constant to Pseudomonas aeruginosa 301-5473 metallo-beta-lactamase VIM-2 expressed in Escherichia coli BL21(DE3) by SPR analysis

Row | SMILES | IC50 (Beta-lactamase VIM-2 [1]) | inhibition [2] | Kd (Beta-lactamase VIM-2 [3]) | Kd (Beta-lactamase VIM-2 [4]) | Ka [5] | koff (Beta-lactamase VIM-2 [6])
1 | N#Cc1c(C(F)(F)F)cc(-c2cccs2)nc1O | 314 µM | > 15% | 229 µM |  |  | 
2 | O=C(O)c1ccccc1C(=O)c1ccccc1 [2-BENZOYLBENZOIC ACID] | 8 µM |  |  |  |  | 
3 | O=C(O)CSc1ccnc2cc(Cl)ccc12 | 205 µM | > 15% | 264 µM |  |  | 
4 | CCCc1ccc(C(=O)CCC(=O)O)cc1 | 287 µM | > 15% | 173 µM |  |  | 
5 | O=C(O)c1cncc(C#Cc2ccccc2)c1 | 298 µM | > 15% | 446 µM |  |  | 
6 | O=C(O)CCCc1c[nH]c2ccccc12 | 757 µM | > 15% | 274 µM |  |  | 
7 | C[C@@H](O)[C@H]1C(=O)N2C(C(=O)O)=C(S[C@@H]3CN[C@H](C(=O)N(C)C)C3)[C@H](C)[C@H]12 [MEROPENEM] |  |  |  | 12 µM |  | 
8 | O=C(O)c1ccccc1C(=O)c1ccc(Cl)cc1 | 12 µM |  |  |  |  | 
9 | Cn1c(S)nnc1C(F)(F)F | 232 µM | > 15% | 145 µM |  |  | 
10 | O=C(O)c1ccccc1Cc1ccccc1 | > 1000 µM |  |  |  |  | 
11 | CC(=O)c1ccccc1C(=O)O | > 1000 µM |  |  |  |  | 
12 | N#Cc1coc2ccccc2c1=O | 1430 µM | > 15% | 999 µM |  |  | 
13 | C[C@H](CS)C(=O)N1CCC[C@H]1C(=O)O [CAPTOPRIL] | 3.5 µM |  |  | 0.6 µM | 4.2 ×10⁴ /M/s | 0.025 s⁻¹
14 | COC(=O)c1ccccc1C(=O)c1ccccc1 | > 3000 µM |  |  |  |  | 
15 | O=C(O)c1ccccc1C(=O)c1ccc(F)cc1 | 14 µM | > 15% | 9 µM |  |  | 
